Data taken from BindingDB's records for doi:10.1124/jpet.104.081539 (Kyowa Hakko Kogyo, 2005).

What was measured:
[1] = target: 5-hydroxytryptamine receptor 2A (Rattus norvegicus, UniProt P14842)
[2] = target: T1, Thromboxane A2 receptor (Homo sapiens, UniProt P21731)
T1 sequence (P21731 whole entry): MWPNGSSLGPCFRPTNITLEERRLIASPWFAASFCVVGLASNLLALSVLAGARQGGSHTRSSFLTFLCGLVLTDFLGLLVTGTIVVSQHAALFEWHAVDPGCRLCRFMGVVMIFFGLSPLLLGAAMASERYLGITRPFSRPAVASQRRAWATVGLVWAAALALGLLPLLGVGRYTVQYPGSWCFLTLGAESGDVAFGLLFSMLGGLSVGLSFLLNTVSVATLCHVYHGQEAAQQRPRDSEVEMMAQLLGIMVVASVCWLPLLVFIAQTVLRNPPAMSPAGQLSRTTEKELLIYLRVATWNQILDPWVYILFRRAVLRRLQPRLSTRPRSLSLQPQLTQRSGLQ

[3] = target: T2, Polyunsaturated fatty acid 5-lipoxygenase (Homo sapiens, UniProt P09917)
T2 sequence (P09917 whole entry): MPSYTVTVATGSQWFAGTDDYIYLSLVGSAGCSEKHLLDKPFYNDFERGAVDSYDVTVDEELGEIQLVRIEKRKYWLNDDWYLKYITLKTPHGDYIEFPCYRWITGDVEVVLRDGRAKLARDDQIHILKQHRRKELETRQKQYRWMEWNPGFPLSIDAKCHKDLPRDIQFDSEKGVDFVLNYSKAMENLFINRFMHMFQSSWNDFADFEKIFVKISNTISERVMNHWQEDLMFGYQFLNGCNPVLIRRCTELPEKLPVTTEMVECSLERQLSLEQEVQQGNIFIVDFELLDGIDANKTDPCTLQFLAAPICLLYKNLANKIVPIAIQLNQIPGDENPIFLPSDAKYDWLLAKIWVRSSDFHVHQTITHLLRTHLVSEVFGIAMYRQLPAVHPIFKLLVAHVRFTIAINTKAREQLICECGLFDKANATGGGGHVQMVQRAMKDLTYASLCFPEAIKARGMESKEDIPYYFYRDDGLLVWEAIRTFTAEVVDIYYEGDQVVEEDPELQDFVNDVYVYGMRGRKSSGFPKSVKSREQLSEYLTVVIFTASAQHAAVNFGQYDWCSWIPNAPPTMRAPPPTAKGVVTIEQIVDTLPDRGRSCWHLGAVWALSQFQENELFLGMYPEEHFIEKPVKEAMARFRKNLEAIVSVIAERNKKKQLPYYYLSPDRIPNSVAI

[4] = target: T3, Muscarinic acetylcholine receptor M1 (Homo sapiens, UniProt P11229)
T3 sequence (P11229 whole entry): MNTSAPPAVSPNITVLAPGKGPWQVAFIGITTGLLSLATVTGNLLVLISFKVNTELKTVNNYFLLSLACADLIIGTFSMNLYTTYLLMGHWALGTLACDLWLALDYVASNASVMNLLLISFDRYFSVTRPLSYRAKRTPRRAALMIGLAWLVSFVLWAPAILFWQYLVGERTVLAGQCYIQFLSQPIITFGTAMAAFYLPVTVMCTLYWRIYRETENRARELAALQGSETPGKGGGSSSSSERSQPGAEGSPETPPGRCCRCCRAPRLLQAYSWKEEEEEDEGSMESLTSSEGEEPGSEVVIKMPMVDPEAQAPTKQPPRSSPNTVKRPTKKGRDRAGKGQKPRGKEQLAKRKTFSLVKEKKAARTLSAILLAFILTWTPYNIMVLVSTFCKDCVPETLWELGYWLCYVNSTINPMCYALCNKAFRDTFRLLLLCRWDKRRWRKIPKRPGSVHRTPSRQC

[5] = target: Platelet-activating factor receptor (Homo sapiens, UniProt P25105)
Chain of Platelet-activating factor receptor (P25105 whole entry): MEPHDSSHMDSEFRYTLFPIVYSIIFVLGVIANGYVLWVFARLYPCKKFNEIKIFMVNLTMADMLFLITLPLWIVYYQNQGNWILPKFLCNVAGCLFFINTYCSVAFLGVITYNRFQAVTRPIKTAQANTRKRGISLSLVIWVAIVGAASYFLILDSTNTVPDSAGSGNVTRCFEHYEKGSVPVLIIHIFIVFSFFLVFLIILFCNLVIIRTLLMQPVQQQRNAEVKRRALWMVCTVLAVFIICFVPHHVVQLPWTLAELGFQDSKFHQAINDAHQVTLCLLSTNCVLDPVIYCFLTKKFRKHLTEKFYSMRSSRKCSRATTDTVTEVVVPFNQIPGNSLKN

[6] = target: T4, Alpha-2A adrenergic receptor [16-465] (Rattus norvegicus, UniProt P22909)
T4 construct: 16-465
T4 sequence (P22909 whole entry): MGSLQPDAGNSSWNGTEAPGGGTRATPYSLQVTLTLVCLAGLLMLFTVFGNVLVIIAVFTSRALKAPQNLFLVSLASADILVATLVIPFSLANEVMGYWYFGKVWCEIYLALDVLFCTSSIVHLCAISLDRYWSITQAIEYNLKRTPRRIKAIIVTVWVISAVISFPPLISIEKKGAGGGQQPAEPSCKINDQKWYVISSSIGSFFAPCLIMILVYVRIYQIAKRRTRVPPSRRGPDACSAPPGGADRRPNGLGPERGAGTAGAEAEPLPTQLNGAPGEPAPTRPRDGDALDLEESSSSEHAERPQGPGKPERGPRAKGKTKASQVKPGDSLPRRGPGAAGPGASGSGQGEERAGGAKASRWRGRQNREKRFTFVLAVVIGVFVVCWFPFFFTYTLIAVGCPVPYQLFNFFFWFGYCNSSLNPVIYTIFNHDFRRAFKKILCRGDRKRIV

[7] = target: D(2) dopamine receptor (Homo sapiens, UniProt P14416)
Chain of D(2) dopamine receptor (P14416 whole entry): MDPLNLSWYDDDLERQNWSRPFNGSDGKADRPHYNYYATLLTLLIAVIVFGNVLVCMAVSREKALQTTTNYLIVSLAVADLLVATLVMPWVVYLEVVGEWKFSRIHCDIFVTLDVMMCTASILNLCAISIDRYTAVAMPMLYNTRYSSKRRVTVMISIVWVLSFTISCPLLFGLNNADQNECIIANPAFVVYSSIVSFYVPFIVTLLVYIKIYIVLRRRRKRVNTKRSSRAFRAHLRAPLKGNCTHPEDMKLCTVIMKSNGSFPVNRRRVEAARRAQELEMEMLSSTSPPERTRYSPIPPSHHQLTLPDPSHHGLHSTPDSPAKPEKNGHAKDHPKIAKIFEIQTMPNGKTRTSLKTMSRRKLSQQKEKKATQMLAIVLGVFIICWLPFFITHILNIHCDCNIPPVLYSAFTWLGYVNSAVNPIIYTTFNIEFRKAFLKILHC

[8] = target: T5, Thromboxane-A synthase (Homo sapiens, UniProt P24557)
T5 sequence (P24557 whole entry): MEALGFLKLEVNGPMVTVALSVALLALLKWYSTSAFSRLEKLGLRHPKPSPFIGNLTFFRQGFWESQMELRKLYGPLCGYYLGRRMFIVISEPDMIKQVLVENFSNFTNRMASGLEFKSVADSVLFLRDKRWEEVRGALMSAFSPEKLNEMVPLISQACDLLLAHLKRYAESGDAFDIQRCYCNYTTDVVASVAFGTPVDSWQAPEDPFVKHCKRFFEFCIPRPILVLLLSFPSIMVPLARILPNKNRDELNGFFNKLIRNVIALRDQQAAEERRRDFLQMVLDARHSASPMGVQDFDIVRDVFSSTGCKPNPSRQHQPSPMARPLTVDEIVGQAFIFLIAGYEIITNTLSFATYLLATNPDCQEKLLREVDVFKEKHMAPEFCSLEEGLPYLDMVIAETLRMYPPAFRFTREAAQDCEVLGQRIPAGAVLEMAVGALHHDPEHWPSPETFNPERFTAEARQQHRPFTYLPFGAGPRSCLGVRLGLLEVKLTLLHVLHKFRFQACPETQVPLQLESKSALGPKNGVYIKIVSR

[9] = target: Leukotriene B4 receptor 1 (Homo sapiens) (UniProt Q15722)
Chain of Leukotriene B4 receptor 1 (Homo sapiens) (Q15722 whole entry, looked up): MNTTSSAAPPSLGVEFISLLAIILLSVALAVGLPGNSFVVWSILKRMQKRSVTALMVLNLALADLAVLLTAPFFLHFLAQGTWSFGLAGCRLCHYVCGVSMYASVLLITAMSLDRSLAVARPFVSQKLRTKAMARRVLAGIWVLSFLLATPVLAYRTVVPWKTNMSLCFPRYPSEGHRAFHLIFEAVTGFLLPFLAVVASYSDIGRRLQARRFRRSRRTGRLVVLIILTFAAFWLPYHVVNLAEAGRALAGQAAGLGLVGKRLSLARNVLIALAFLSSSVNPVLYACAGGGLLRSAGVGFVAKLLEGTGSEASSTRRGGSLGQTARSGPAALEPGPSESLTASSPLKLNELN

Measured: Ki

Chain of 5-hydroxytryptamine receptor 2A (P14842 whole entry): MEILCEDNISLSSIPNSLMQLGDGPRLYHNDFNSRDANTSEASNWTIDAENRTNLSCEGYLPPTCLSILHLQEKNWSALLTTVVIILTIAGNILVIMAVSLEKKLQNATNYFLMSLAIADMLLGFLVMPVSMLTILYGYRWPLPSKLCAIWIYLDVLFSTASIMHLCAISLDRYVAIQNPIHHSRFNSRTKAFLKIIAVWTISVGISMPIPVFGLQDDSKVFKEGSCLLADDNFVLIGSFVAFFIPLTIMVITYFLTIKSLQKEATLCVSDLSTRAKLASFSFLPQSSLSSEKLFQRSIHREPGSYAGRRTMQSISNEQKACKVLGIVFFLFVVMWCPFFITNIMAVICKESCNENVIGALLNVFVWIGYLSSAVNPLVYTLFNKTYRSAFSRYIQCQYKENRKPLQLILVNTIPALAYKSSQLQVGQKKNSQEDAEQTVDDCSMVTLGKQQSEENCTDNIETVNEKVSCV

CC(C)C(=O)N(c1ccccc1)C1CC(C)N(C(=O)c2ccccc2)c2ccccc21 (configuration not stated) [K117]
> 1 µM: [1] | [2] | [3] | [4] | [5] | [6] | [7] | [8] | [9]

CCC(=O)N1c2ccccc2C(N(C(C)=O)c2ccccc2)CC1C (configuration not stated) [K376]
> 1 µM: [1] | [2] | [3] | [4] | [5] | [6] | [7] | [8] | [9]

CC1CC(N(C(=O)C2CC2)c2ccccc2)c2ccccc2N1C(=O)c1ccccc1 (configuration not stated) [K604]
> 1 µM: [1] | [2] | [3] | [4] | [5] | [6] | [7] | [8] | [9]
